In the case of `O=[N+]([O-])c1c(Cl)cc(Cl)c([N+](=O)[O-])c1Cl`, the solubility (mole fraction) (in 1,2-dichloroethane, 278.15 K) is reported as 0.0536, the solubility (mole fraction) (in 1,2-dichloroethane, 283.15 K) is reported as 0.0636 and the solubility (mole fraction) (in 1,2-dichloroethane, 288.15 K) is reported as 0.0732. The solubility (mole fraction) (in 1,2-dichloroethane, 293.15 K) was 0.0837, the solubility (mole fraction) (in 1,2-dichloroethane, 298.15 K) was 0.0961 and the solubility (mole fraction) (in 1,2-dichloroethane, 303.15 K) was 0.108. The solubility (mole fraction) (in 1,2-dichloroethane, 308.15 K) was 0.123, the solubility (mole fraction) (in 1,2-dichloroethane, 313.15 K) was 0.144 and the solubility (mole fraction) (in 1,2-dichloroethane, 318.15 K) was 0.168. The solubility (mole fraction) (in acetone, 278.15 K) was 0.0844, the solubility (mole fraction) (in acetone, 283.15 K) was 0.0944 and the solubility (mole fraction) (in acetone, 288.15 K) was 0.106. For the same compound, the solubility (mole fraction) (in acetone, 293.15 K) was 0.117, the solubility (mole fraction) (in acetone, 298.15 K) was 0.13 and the solubility (mole fraction) (in acetone, 303.15 K) was 0.145. It also gave a solubility (mole fraction) (in acetone, 308.15 K) of 0.162, a solubility (mole fraction) (in acetone, 313.15 K) of 0.18 and a solubility (mole fraction) (in acetone, 318.15 K) of 0.2. It also gave a solubility (mole fraction) (in acetonitrile, 278.15 K) of 0.0224, a solubility (mole fraction) (in acetonitrile, 283.15 K) of 0.0267 and a solubility (mole fraction) (in acetonitrile, 288.15 K) of 0.0313. For the same compound, the solubility (mole fraction) (in acetonitrile, 293.15 K) was 0.0373, the solubility (mole fraction) (in acetonitrile, 298.15 K) was 0.0447 and the solubility (mole fraction) (in acetonitrile, 303.15 K) was 0.0531. It also gave a solubility (mole fraction) (in acetonitrile, 308.15 K) of 0.0635, a solubility (mole fraction) (in acetonitrile, 313.15 K) of 0.0769 and a solubility (mole fraction) (in acetonitrile, 318.15 K) of 0.0928. The solubility (mole fraction) (in chloroform, 278.15 K) was 0.0715, the solubility (mole fraction) (in chloroform, 283.15 K) was 0.0892 and the solubility (mole fraction) (in chloroform, 288.15 K) was 0.0997. The solubility (mole fraction) (in chloroform, 293.15 K) was 0.11, the solubility (mole fraction) (in chloroform, 298.15 K) was 0.121 and the solubility (mole fraction) (in chloroform, 303.15 K) was 0.129. It also gave a solubility (mole fraction) (in chloroform, 308.15 K) of 0.141, a solubility (mole fraction) (in chloroform, 313.15 K) of 0.165 and a solubility (mole fraction) (in chloroform, 318.15 K) of 0.197. The solubility (mole fraction) (in dichloromethane, 278.15 K) was 0.0668, the solubility (mole fraction) (in dichloromethane, 283.15 K) was 0.0758 and the solubility (mole fraction) (in dichloromethane, 288.15 K) was 0.0869. For the same compound, the solubility (mole fraction) (in dichloromethane, 293.15 K) was 0.0981, the solubility (mole fraction) (in dichloromethane, 298.15 K) was 0.11 and the solubility (mole fraction) (in dichloromethane, 303.15 K) was 0.125. The solubility (mole fraction) (in dichloromethane, 308.15 K) was 0.141, the solubility (mole fraction) (in dichloromethane, 311.15 K) was 0.147 and the solubility (mole fraction) (in ethanol, 278.15 K) was 0.00389. For the same compound, the solubility (mole fraction) (in ethanol, 283.15 K) was 0.00461, the solubility (mole fraction) (in ethanol, 288.15 K) was 0.00539 and the solubility (mole fraction) (in ethanol, 293.15 K) was 0.0062. It also gave a solubility (mole fraction) (in ethanol, 298.15 K) of 0.00712, a solubility (mole fraction) (in ethanol, 303.15 K) of 0.00831 and a solubility (mole fraction) (in ethanol, 308.15 K) of 0.00969. It also gave a solubility (mole fraction) (in ethanol, 313.15 K) of 0.0113, a solubility (mole fraction) (in ethanol, 318.15 K) of 0.0132 and a solubility (mole fraction) (in ethyl acetate, 278.15 K) of 0.0768. It also gave a solubility (mole fraction) (in ethyl acetate, 283.15 K) of 0.0849, a solubility (mole fraction) (in ethyl acetate, 288.15 K) of 0.0947 and a solubility (mole fraction) (in ethyl acetate, 293.15 K) of 0.105. The solubility (mole fraction) (in ethyl acetate, 298.15 K) was 0.116, the solubility (mole fraction) (in ethyl acetate, 303.15 K) was 0.13 and the solubility (mole fraction) (in ethyl acetate, 308.15 K) was 0.145. For the same compound, the solubility (mole fraction) (in ethyl acetate, 313.15 K) was 0.16, the solubility (mole fraction) (in ethyl acetate, 318.15 K) was 0.177 and the solubility (mole fraction) (in methanol, 278.15 K) was 0.0034. It also gave a solubility (mole fraction) (in methanol, 283.15 K) of 0.00426, a solubility (mole fraction) (in methanol, 288.15 K) of 0.00698 and a solubility (mole fraction) (in methanol, 293.15 K) of 0.0221. It also gave a solubility (mole fraction) (in methanol, 298.15 K) of 0.0422, a solubility (mole fraction) (in methanol, 303.15 K) of 0.0562 and a solubility (mole fraction) (in methanol, 308.15 K) of 0.0718. For the same compound, the solubility (mole fraction) (in methanol, 313.15 K) was 0.0849, the solubility (mole fraction) (in methanol, 318.15 K) was 0.0909 and the solubility (mole fraction) (in methyl acetate, 278.15 K) was 0.074. For the same compound, the solubility (mole fraction) (in methyl acetate, 283.15 K) was 0.0832, the solubility (mole fraction) (in methyl acetate, 288.15 K) was 0.0943 and the solubility (mole fraction) (in methyl acetate, 293.15 K) was 0.109. The solubility (mole fraction) (in methyl acetate, 298.15 K) was 0.124, the solubility (mole fraction) (in methyl acetate, 303.15 K) was 0.14 and the solubility (mole fraction) (in methyl acetate, 308.15 K) was 0.156. For the same compound, the solubility (mole fraction) (in methyl acetate, 313.15 K) was 0.173, the solubility (mole fraction) (in methyl acetate, 318.15 K) was 0.19 and the solubility (mole fraction) (in n-butanol, 278.15 K) was 0.00475. For the same compound, the solubility (mole fraction) (in n-butanol, 283.15 K) was 0.00566, the solubility (mole fraction) (in n-butanol, 288.15 K) was 0.00668 and the solubility (mole fraction) (in n-butanol, 293.15 K) was 0.00776. It also gave a solubility (mole fraction) (in n-butanol, 298.15 K) of 0.00906, a solubility (mole fraction) (in n-butanol, 303.15 K) of 0.0108 and a solubility (mole fraction) (in n-butanol, 308.15 K) of 0.013. It also gave a solubility (mole fraction) (in n-butanol, 313.15 K) of 0.0157, a solubility (mole fraction) (in n-butanol, 318.15 K) of 0.0189 and a solubility (mole fraction) (in n-propanol, 278.15 K) of 0.00412. It also gave a solubility (mole fraction) (in n-propanol, 283.15 K) of 0.0049, a solubility (mole fraction) (in n-propanol, 288.15 K) of 0.00565 and a solubility (mole fraction) (in n-propanol, 293.15 K) of 0.00668. The solubility (mole fraction) (in n-propanol, 298.15 K) was 0.00793, the solubility (mole fraction) (in n-propanol, 303.15 K) was 0.00921 and the solubility (mole fraction) (in n-propanol, 308.15 K) was 0.0109. For the same compound, the solubility (mole fraction) (in n-propanol, 313.15 K) was 0.0132, the solubility (mole fraction) (in n-propanol, 318.15 K) was 0.0158 and the solubility (mole fraction) (in tetrachloromethane, 278.15 K) was 0.0155. The solubility (mole fraction) (in tetrachloromethane, 283.15 K) was 0.0185, the solubility (mole fraction) (in tetrachloromethane, 288.15 K) was 0.0224 and the solubility (mole fraction) (in tetrachloromethane, 293.15 K) was 0.0277. It also gave a solubility (mole fraction) (in tetrachloromethane, 298.15 K) of 0.0341, a solubility (mole fraction) (in tetrachloromethane, 303.15 K) of 0.0411 and a solubility (mole fraction) (in tetrachloromethane, 308.15 K) of 0.0492. The solubility (mole fraction) (in tetrachloromethane, 313.15 K) was 0.0589 and the solubility (mole fraction) (in tetrachloromethane, 318.15 K) was 0.0695.

Reference: BigSolDB 2.1
